In the first assay the target is endogenous CETP from serum (Homo sapiens (Human), UniProt P11597). Nature of the assay: RTA assay in 95% human serum (CETP-catalyzed CE and TG transfer, endogenous CETP). The note with it: RTA assay in 95% human serum; read-out: IC50. The assay is classed as biochemical.
Chain of endogenous CETP from serum (P11597 18-493 limits assumed): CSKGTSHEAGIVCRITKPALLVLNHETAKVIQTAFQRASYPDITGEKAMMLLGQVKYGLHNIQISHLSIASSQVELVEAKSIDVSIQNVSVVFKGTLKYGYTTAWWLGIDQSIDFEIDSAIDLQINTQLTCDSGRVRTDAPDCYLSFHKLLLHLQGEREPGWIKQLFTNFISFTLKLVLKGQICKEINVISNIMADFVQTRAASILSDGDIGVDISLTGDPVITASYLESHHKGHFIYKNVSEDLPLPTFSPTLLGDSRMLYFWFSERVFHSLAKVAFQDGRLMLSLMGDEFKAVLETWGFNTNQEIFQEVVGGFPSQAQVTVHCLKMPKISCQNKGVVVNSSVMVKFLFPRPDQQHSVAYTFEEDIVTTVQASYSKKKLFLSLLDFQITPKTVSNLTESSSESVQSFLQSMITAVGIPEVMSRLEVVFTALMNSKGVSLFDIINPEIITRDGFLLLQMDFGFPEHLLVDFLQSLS
For `COC(=O)c1ccc(-c2cc(-c3ccc(C(F)(F)F)cc3[C@@H]3CC[C@H]4[C@@H](c5cc(C(F)(F)F)cc(C(F)(F)F)c5)OC(=O)N34)c(OC)cc2F)c(C)c1` [Example 6, methyl 2″-{(1R,5S,7aS)-1-[3,5-bis(trifluoromethyl)phenyl]-3-oxotetrahydro-1H-pyrrolo[1,2-c][1,3]oxazol-5-yl}-6′-fluoro-4′-methoxy-2-methyl-4″- (trifluoromethyl)-1,1′:3′,1″- terphenyl-4-carboxylate], the IC50 is 641 nM. Turning to `COc1ccc(C#N)cc1-c1ccc(C(F)(F)F)cc1[C@@H]1CC[C@H]2[C@@H](c3cc(C(F)(F)F)cc(C(F)(F)F)c3)OC(=O)N12` [Example 9, 2′-{(1R,5S,7aS)-1-[3,5-bis(trifluoromethyl)phenyl]-3-oxotetrahydro-1H-pyrrolo[1,2-c][1,3]oxazol-5-yl}-6-methoxy-4′-(trifluoromethyl)biphenyl-3-carbonitrile], the IC50 was found to be 224 nM.

For `COc1ncc(C(F)(F)F)cc1-c1ccc(C(F)(F)F)cc1[C@@H]1CC[C@H]2[C@@H](c3cc(C(F)(F)F)cc(C(F)(F)F)c3)OC(=O)N12` [Example 10, (1R,5S,7aS)-1-[3,5-bis(trifluoromethyl)phenyl]-5-{2-[2-methoxy-5-(trifluoromethyl)pyridin-3-yl]-5-(trifluoromethyl)phenyl}tetrahydro-1H-pyrrolo[1,2-c][1,3]oxazol-3-one], the IC50 amounted to 371 nM. Turning to `COc1ncc(Cl)cc1-c1ccc(C(F)(F)F)cc1[C@@H]1CC[C@H]2[C@@H](c3cc(C(F)(F)F)cc(C(F)(F)F)c3)OC(=O)N12` [Example 11, (1R,5S,7aS)-1-[3,5-bis(trifluoromethyl)phenyl]-5-[2-(5-chloro-2-methoxypyridin-3-yl)-5-(trifluoromethyl)phenyl]tetrahydro-1H-pyrrolo[1,2-c][1,3]oxazol-3-one], the IC50 is 294 nM. As to `N#Cc1cscc1-c1ccc(C(F)(F)F)cc1[C@@H]1CC[C@H]2[C@@H](c3cc(C(F)(F)F)cc(C(F)(F)F)c3)OC(=O)N12` [Example 12, 4-[2-{(1R,5S,7aS)-1-[3,5-bis(trifluoromethyl)phenyl]-3-oxotetrahydro-1H-pyrrolo[1,2-c][1,3]oxazol-5-yl}-4-(trifluoromethyl)phenyl]thiophene-3-carbonitrile], the IC50 was determined as 266 nM. In the case of `COc1ccc(C)cc1-c1ccc(C(F)(F)F)cc1[C@@H]1CC[C@H]2[C@@H](c3cc(C(F)(F)F)cc(C(F)(F)F)c3)OC(=O)N12` [Example 13, (1R,5S,7aS)-1-[3,5-bis(trifluoromethyl)phenyl]-5-[2′-methoxy-5′-methyl-4-(trifluoromethyl)biphenyl-2-yl]tetrahydro-1H-pyrrolo[1,2-c][1,3]oxazol-3-one], the IC50 was 263 nM.

For `COc1ccc(Cl)cc1-c1ccc(C(F)(F)F)cc1[C@@H]1CC[C@H]2[C@@H](c3cc(C(F)(F)F)cc(C(F)(F)F)c3)OC(=O)N12` [Example 14, (1R,5S,7aS)-1-[3,5-bis(trifluoromethyl)phenyl]-5-[5′-chloro-2′-methoxy-4-(trifluoromethyl)biphenyl-2-yl]tetrahydro-1H-pyrrolo[1,2-c][1,3]oxazol-3-one], the IC50 is 233 nM.

Staying with this assay, now noted: RTA assay, 95% human serum; read-out: RTA (95% HS).
Consider `COC(=O)CCc1ccc(OC)c(-c2ccc(C(F)(F)F)cc2[C@@H]2CC[C@H]3[C@@H](c4cc(C(F)(F)F)cc(C(F)(F)F)c4)OC(=O)N23)c1` [Example 1, Methyl 3-[2′-{(1R,5S,7aS)-1-[3,5-bis(trifluoromethyl)phenyl]-3-oxotetrahydro-1H-pyrrolo[1,2-c][1,3]oxazol-5-yl}-6-methoxy-4′-(trifluoromethyl)biphenyl-3-yl]propanoate], for which the IC50 was found to be 296 nM. Still for that read-out and setting: the value for `COc1ccc([C@H]2[C@H](C)NC(=O)[C@@H]2C)cc1-c1ccc(C(F)(F)F)cc1[C@@H]1CC[C@H]2[C@@H](c3cc(C(F)(F)F)cc(C(F)(F)F)c3)OC(=O)N12` [Example 4, (1R,5S,7aS)-1-(3,5-bis(trifluoromethyl)phenyl)-5-(5′-((2S,3S,4R)-2,4-dimethyl-5-oxopyrrolidin-3-yl)-2′-methoxy-4-(trifluoromethyl)-[1,1′-biphenyl]-2-yl)tetrahydropyrrolo[1,2-c]oxazol-3(1H)one] was 398 nM.
